Where a name gives a salt, the structure may show the parent alone. Read-outs that look alike come from different tables or passages of the source.
Experiments:
[1] = tested on: human EPO production, Hep3B cells; experiment: Human EPO production activity in Hep3B cells (EPO-ELISA of culture supernatant); type: cell-based; conditions: for EC50: 24 hr incubation, values consisting solely of numbers, read-out: EC50 (μM) in vitro, human EPO production activity; for production activity (%) at 30 μM in vitro, human EPO: 24 hr, values containing %, relative to maximum production
Procedure: The activity of the test compound on human EPO production was measured using Hep3B (AMC) established from human liver-derived cell line.
Hep3B cells were cultured in Eagle-MEM medium containing 10% fetal bovine serum, and the test compound was diluted with dimethyl sulfoxide (DMSO).
Hep3B cells were cultured in a 96-well plate, and a test compound was added at each concentration 24 hr later. After incubation at 37° C. for 24 hr, the culture supernatant was collected. The concentration of human EPO produced in the culture supernatant was measured using a human EPO-ELISA kit (manufactured by StemCell Technologies, 01630) according to the manufacturer's explanation, and the human EPO production activity (%) of the test compound was calculated based on the maximum value of production under the above conditions and the value without addition of the test compound. […] In these Tables, the values consisting solely of numbers show EC50 (μM) and those containing % show human EPO production activity (%) at […].

human PHD2 = target: T1, human PHD2 (Homo sapiens, UniProt Q9GZT9); experiment: Measurement of human PHD inhibitory activity (TR-FRET, hydroxylation of HIF-1α partial peptide); type: biochemical; conditions: human PHD2 enzyme 1 nM, 25° C. 30 min, values consisting solely of numbers; read-out: IC50 (μM) in vitro, human PHD inhibitory activity
T1 construct: made in house; host or cells: Sf9 insect cells (baculovirus, pVL1393 vector)
T1 sequence (Q9GZT9 whole entry): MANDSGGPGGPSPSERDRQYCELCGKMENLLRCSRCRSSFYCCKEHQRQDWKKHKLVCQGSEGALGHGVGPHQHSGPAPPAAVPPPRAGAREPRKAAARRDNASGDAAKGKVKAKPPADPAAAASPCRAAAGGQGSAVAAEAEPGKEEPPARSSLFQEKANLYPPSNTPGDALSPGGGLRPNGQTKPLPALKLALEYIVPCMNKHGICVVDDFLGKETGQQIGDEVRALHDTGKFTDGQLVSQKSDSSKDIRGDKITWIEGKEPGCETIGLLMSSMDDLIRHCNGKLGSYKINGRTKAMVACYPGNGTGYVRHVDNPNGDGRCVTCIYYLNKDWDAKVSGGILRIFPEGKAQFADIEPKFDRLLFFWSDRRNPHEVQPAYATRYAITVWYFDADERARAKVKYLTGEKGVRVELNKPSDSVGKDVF
Procedure: Human PHD2 was expressed in insect cell (Sf9 cell). […] The vector and baculovirus were cotransfected into Sf9, and human PHD2 expression baculovirus was isolated in Sf9. By using the virus, human PHD2-expressed cell was prepared. […] The cell lysate was flowed into a column filled with ANTI-FLAG M2 Affinity Gel Freezer Safe (SIGMA), washed, and the N-terminal FLAG-tag-added human PHD2 was eluted and collected.
VBC complex (VHL/Elongin B/Elongin C) was expressed in Escherichia coli (BL21(DE3)). […] After these expression vectors were transfected into Escherichia coli (BL21(DE3)), Escherichia coli was cultured at 37° C. in the medium containing IPTG. The collected Escherichia coli was disrupted by sonication and flowed into a column filled with Ni-NTA superflow (QIAGEN), washed, and the product was eluted and collected. The eluate was flowed into a column filled with Glutathione Sepharose 4B, washed, and the product was eluted and collected. […]
As for human PHD2 enzyme activity, hydroxylation of proline residue contained in the 19 residues of the partial peptide based on the sequence of HIF-1α as a substrate was measured by TR-FRET (Time-Resolved Fluorescence Resonance Energy Transfer) method.
A test compound and a substrate solution were added to a 96-well plate. The reaction was started by addition of a human PHD2 enzyme solution (final concentration 1 nM) to the reaction system. After incubation at 25° C. for 30 min, a stop solution containing EDTA was added, and a VBC complex solution containing europium (Eu) and Xlent was added, and the amount of hydroxylated proline residue was quantified by time-resolved fluorescence spectroscopy. The time-resolved fluorescence in each well was measured, and the human PHD inhibitory activity (%) of the test compound was calculated based on the values of enzyme non-addition well and test compound non-addition well.

For O=C(O)CNC(=O)c1c(O)cc(CCc2ccc(C3CC3)cc2)n2ncnc12 [Example 38, ({5-[2-(4-cyclopropyl-phenyl)ethyl]-7-hydroxy[1,2,4]trizazolo[1,5-a]pyridine-8-carbonyl}amino)acetic acid hydrochloride], which EC50 ([1]; Homo sapiens) is on record?
Its EC50 is 8.7 µM.

And the IC50 (human PHD2)?
Its IC50 is 0.59 µM.

For CC(C)(C)Cc1cc(O)c(C(=O)NCC(=O)O)c2ncnn12 [Example 39, {[5-(2,2-dimethylpropyl)-7-hydroxy[1,2,4]triazolo[1,5-a]pyridine-8-carbonyl]amino}acetic acid hydrochloride], which EC50 ([1]; Homo sapiens) is on record?
The EC50 was 22.3 µM.

And the IC50 (human PHD2)?
The IC50 was 1.25 µM.

Which results are given for O=C(O)CNC(=O)c1c(O)cc(-c2cccc(F)c2)n2ncnc12 [Example 42, {[5-(3-fluorophenyl)-7-hydroxy[1,2,4]triazolo[1,5-a]pyridine-8-carbonyl]amino}acetic acid hydrochloride]?
EC50 ([1]; Homo sapiens): 14.2 µM; IC50 (human PHD2): 0.24 µM

Which results are given for O=C(O)CNC(=O)c1c(O)cc(-c2cc(F)cc(C3CC3)c2)n2ncnc12 [Example 52, {[5-(3-cyclopropyl-5-fluorophenyl)-7-hydroxy[1,2,4]triazolo[1,5-a]pyridine-8-carbonyl]amino} acetic acid hydrochloride]?
EC50 ([1]; Homo sapiens): 10.4 µM; IC50 (human PHD2): 0.89 µM

For CC(C)(NC(=O)c1c(O)cc(-c2cc(F)cc(F)c2)n2ncnc12)C(=O)O [Example 68, 2-{[5-(3,5-difluorophenyl)-7-hydroxy[1,2,4]triazolo[1,5-a]pyridine-8-carbonyl]amino}-2-methylpropionic acid hydrochloride], which “production activity (%) at 30 μM in vitro, human EPO” value (from here on “production activity (%) at 30 μM”) [1] is on record?
Its value is 0%.

And the IC50 (human PHD2)?
Its IC50 is 5.94 µM.

For O=C(O)CNC(=O)c1c(O)cc(CCc2ccccc2)c2ncnn12 [Example 87, [(6-hydroxy-8 phenethyl[1,2,4]triazolo[1,5-a]pyridine-5-carbonyl)amino] acetic acid hydrochloride], which EC50 ([1]; Homo sapiens, Hep3B, 24 h) is on record?
The EC50 was 18.5 µM.

Which “production activity (%) at 30 μM” value [1] does the source give for CCCCCCc1cc(O)c(C(=O)NCC(=O)O)c2ncnn12.Cl [Example 73, [(5-hexyl-7-hydroxy[1,2,4]triazolo[1,5-a]pyridine-8-carbonyl)amino] acetic acid hydrochloride] here?
The value was 34%.

And the IC50 (human PHD2)?
The IC50 was 7.09 µM.

What does the source list for O=C(O)CNC(=O)c1c(O)cc(-c2cc(F)cc(C(F)(F)F)c2)n2ncnc12 [Example 31, {[5-(3-fluoro-5-trifluoromethyl-phenyl)-7-hydroxy[1,2,4]triazolo[1,5-a]pyridine-8-carbonyl]amino}acetic acid hydrochloride]?
EC50 ([1]; Homo sapiens): 12.1 µM; IC50 (human PHD2): 0.8 µM

Which results are given for O=C(O)CNC(=O)c1c(O)ccn2nc(-c3ccccc3)nc12 [Example 13, [(7-hydroxy-2-phenyl[1,2,4]triazolo[1,5-a]pyridine-8-carbonyl)amino]acetic acid hydrochloride]?
production activity (%) at 30 μM in vitro, human EPO [1]: 1%; IC50 (human PHD2): 1.31 µM

For O=C(O)CNC(=O)c1c(O)cc(-c2cc(F)cc(C(F)(F)F)c2)n2ncnc12 [Example 118, {[5-(3-fluoro-5-trifluoromethyl phenyl)-7-hydroxy[1,2,4]triazolo[1,5-a]pyridine-8-carbonyl]amino} acetic acid], which IC50 (human PHD2) is on record?
The IC50 was 0.64 µM.

How did the EC50 ([1]; Homo sapiens, Hep3B, 24 h) turn out when CCCCCc1cn2ncnc2c(C(=O)NCC(=O)O)c1O [Example 71, [(7-hydroxy-6-pentyl[1,2,4]triazolo[1,5-a]pyridine-8-carbonyl)amino] acetic acid hydrochloride] was run?
The EC50 was 15.8 µM.

How did the EC50 ([1]; Homo sapiens, Hep3B, 24 h) turn out when O=C(O)CNC(=O)c1c(O)cc(-c2cccc(Cl)c2)n2ncnc12 [Example 44, {[5-(3-chlorophenyl)-7-hydroxy[1,2,4]triazolo[1,5-a]pyridine-8-carbonyl]amino}acetic acid] was run?
The EC50 was 10.4 µM.

With O=C(O)CNC(=O)c1c(O)ccn2ncnc12 [Example 12, [(7-hydroxy[1,2,4]triazolo[1,5-a]pyridine-8-carbonyl)amino]acetic acid hydrochloride] as the molecule, how does the “production activity (%) at 30 μM” value [1] read?
The value was 5%.

For O=C(O)CNC(=O)c1c(O)cc(-c2ccccc2)c2ncnn12 [Example 83, [(6-hydroxy-8-phenyl[1,2,4]triazolo[1,5-a]pyridine-5-carbonyl)amino] acetic acid hydrochloride], which EC50 ([1]; Homo sapiens, Hep3B, 24 h) is on record?
Its EC50 is 20.7 µM.

How did the EC50 ([1]; Homo sapiens, Hep3B, 24 h) turn out when CCCCCc1cc(O)c(C(=O)NCC(=O)O)c2ncnn12 [Example 74, [(7-hydroxy-5-pentyl[1,2,4]triazolo[1,5-a]pyridine-8-carbonyl)amino] acetic acid hydrochloride] was run?
The EC50 was 8.3 µM.

Which EC50 ([1]; Homo sapiens, Hep3B, 24 h) does the source give for O=C(O)CNC(=O)c1c(O)cc(-c2ccccc2)n2ncnc12 [Example 22, [(7-hydroxy-5-phenyl[1,2,4]triazolo[1,5-a]pyridine-8-carbonyl)amino]acetic acid hydrochloride] here?
The EC50 was 13.7 µM.

How did the IC50 (human PHD2) turn out when O=C(O)CNC(=O)c1c(O)cc(-c2cc(F)cc(C3CC3)c2)n2ncnc12 [Example 122, {[5-(3-cyclopropyl-5-fluorophenyl)-7-hydroxy[1,2,4]triazolo[1,5-a]pyridine-8-carbonyl]amino} acetic acid] was run?
Its IC50 is 0.96 µM.

How did the EC50 ([1]; Homo sapiens, Hep3B, 24 h) turn out when O=C(O)CNC(=O)c1c(O)cc(C2CCCCC2)c2ncnn12 [Example 92, [(8-cyclohexyl-6-hydroxy[1,2,4]triazolo[1,5-a]pyridine-8-carbonyl]amino] acetic acid hydrochloride] was run?
The EC50 was 18.5 µM.

With O=C(O)CNC(=O)c1c(O)ccn2cnnc12 [Example 10, [(7-hydroxy[1,2,4]triazolo[4,3-a]pyridine-8-carbonyl)amino]acetic acid hydrochloride] as the molecule, how does the “production activity (%) at 30 μM” value [1] read?
The value was 0%.

For Cc1nc2c(C(=O)NCC(=O)O)c(O)cc(CCc3ccccc3)n2n1 [Example 7, [(7-hydroxy-2-methyl-5-phenethyl[1,2,4]triazolo[1,5-a]pyridine-8-carbonyl)amino]acetic acid hydrochloride], which EC50 ([1]; Homo sapiens, Hep3B, 24 h) is on record?
Its EC50 is 18.4 µM.

Which EC50 [1] does the source give for CCCCc1cc(O)c(C(=O)NCC(=O)O)c2ncnn12 [Example 117, [(5-butyl-7-hydroxy[1,2,4]triazolo[1,5-a]pyridine-8-carbonyl)amino] acetic acid] here?
Its EC50 is 7.7 µM.

Which EC50 ([1]; Homo sapiens, Hep3B, 24 h) does the source give for O=C(O)CNC(=O)c1c(O)cc(-c2cccc(Cl)c2)c2ncnn12 [Example 84, {[8-(3-chlorophenyl)-6-hydroxy[1,2,4]triazolo[1,5-a]pyridine-5-carbonyl]amino} acetic acid] here?
The EC50 was 11 µM.

With O=C(O)CNC(=O)c1c(O)cc(-c2ccc(F)c(C(F)(F)F)c2)n2ncnc12 [Example 121, {[5-(4-fluoro-3-trifluoromethyl phenyl)-7-hydroxy[1,2,4]triazolo[1,5-a]pyridine-8-carbonyl]amino} acetic acid] as the molecule, how does the IC50 (human PHD2) read?
Its IC50 is 0.33 µM.

Which EC50 ([1]; Homo sapiens, Hep3B, 24 h) does the source give for CCCCc1cc(O)c(C(=O)NCC(=O)O)c2ncnn12 [Example 3, [(5-butyl-7-hydroxy[1,2,4]triazolo[1,5-a]pyridine-8-carbonyl)amino]acetic acid hydrochloride] here?
Its EC50 is 12.4 µM.

For CCc1c(O)c(C(=O)NCC(=O)O)c2ncnn2c1CC.Cl [Example 4, [(5,6-diethyl-7-hydroxy[1,2,4]triazolo[1,5-a]pyridine-8-carbonyl)amino]acetic acid hydrochloride], which “production activity (%) at 30 μM” value [1] is on record?
The value was 38%.

For Cl.O=C(O)CNC(=O)c1c(O)ccc2ncnn12 [Example 107, [(6-hydroxy[1,2,4]triazolo[1,5-a]pyridine-5-carbonyl]amino} acetic acid hydrochloride], which “production activity (%) at 30 μM” value [1] is on record?
The value was 4%.

O=C(O)CNC(=O)c1c(O)cc(CCc2ccc(F)cc2)n2ncnc12 [Example 17, ({5-[2-(4-fluorophenyl)ethyl]-7-hydroxy[1,2,4]triazolo[1,5-a]pyridine-8-carbonyl}amino)acetic acid hydrochloride] was tested. Which EC50 ([1]; Homo sapiens, Hep3B, 24 h) did it give?
The EC50 was 8.8 µM.

How did the “production activity (%) at 30 μM” value [1] turn out when CCCc1cc(O)c(C(=O)NCC(=O)O)c2ncnn12 [Example 65, [(7-hydroxy-5-propyl[1,2,4]triazolo[1,5-a]pyridine-8-carbonyl)amino] acetic acid hydrochloride] was run?
Its value is 49%.

Which EC50 ([1]; Homo sapiens, Hep3B, 24 h) does the source give for O=C(O)CNC(=O)c1c(O)cc(C2CCCCC2)n2ncnc12 [Example 27, [(5-cyclohexyl-7-hydroxy[1,2,4]triazolo[1,5-a]pyridine-8-carbonyl)amino]acetic acid hydrochloride] here?
The EC50 was 7.7 µM.
